Values after ≈ are worked out from the molar mass of the structure shown. Where a name gives a salt, the structure may show the parent alone.
Key:
[1] = system: HEK293; assay: cells; assay type: functional, Homo sapiens, ATCC CRL1573; settings: Homo sapiens, ATCC CRL1573, HEK293; ASSAY_TEST Inhibition of Cell Viability; detection method Resazurin; Fluorescence (ex560/em590); MEDIA DMEM with 10% FBS; plate type 384well; TC; CORNING #3712; time 18 hr
[2] = system: Cryptococcus neoformans
Description: Antifungal activity against Cryptococcus neoformans H99 ATCC 208821 (CO-ADD:FG_002); MIC in YNB media using NBS plates, by Resazurin OD(600-570)

[3] = system: Staphylococcus aureus; assay: microbe, parasite or virus in culture; settings: ATCC 43300, 18 h, ASSAY_TEST Inhibition of Bacterial Growth, detection method Absorption (OD600), MEDIA CAMHB, plate type 384well, NBS, CORNING #3640
Description: Antibacterial activity against Staphylococcus aureus MRSA ATCC 43300 (CO-ADD:GP_020); MIC in CAMBH media, using NBS plates, by OD(600)

[4] = system: Escherichia coli; assay: microbe, parasite or virus in culture; settings: ATCC 25922, 18 h, ASSAY_TEST Inhibition of Bacterial Growth, detection method Absorption (OD600), MEDIA CAMHB, plate type 384well, NBS, CORNING #3640
Description: Antibacterial activity against Escherichia coli ATCC 25922 (CO-ADD:GN_001); MIC in CAMBH media using NBS plates, by OD(600)

[5] = system: Klebsiella pneumoniae; assay: microbe, parasite or virus in culture; settings: ATCC 700603, 18 h, ASSAY_TEST Inhibition of Bacterial Growth, detection method Absorption (OD600), MEDIA CAMHB, plate type 384well, NBS, CORNING #3640
Description: Antibacterial activity against Klebsiella pneumoniae MDR ATCC 70063 (CO-ADD:GN_003); MIC in CAMBH media using NBS plates, by OD(600)

[6] = system: Pseudomonas aeruginosa; assay: microbe, parasite or virus in culture; settings: ATCC 27853, 18 h, ASSAY_TEST Inhibition of Bacterial Growth, detection method Absorption (OD600), MEDIA CAMHB, plate type 384well, NBS, CORNING #3640
Description: Antibacterial activity against Pseudomonas aeruginosa ATCC 27853 (CO-ADD:GN_042); MIC in CAMBH media using NBS plates, by OD(600)

[7] = system: Acinetobacter baumannii; assay: microbe, parasite or virus in culture; settings: ATCC 19606, 18 h, ASSAY_TEST Inhibition of Bacterial Growth, detection method Absorption (OD600), MEDIA CAMHB, plate type 384well, NBS, CORNING #3640
Description: Antibacterial activity against Acinetobacter baumannii ATCC 19606 (CO-ADD:GN_034); MIC in CAMBH media using NBS plates, by OD600

[8] = system: Candida albicans; assay: microbe, parasite or virus in culture; settings: ATCC 90028, ASSAY_TEST Inhibition of Fungal Growth, detection method Absorption (OD530), plate type 384well, NBS, CORNING #3640
Description: Antifungal activity against Candida albicans ATCC 90028 (CO-ADD:FG_001); MIC in YNB media using NBS plates, by OD630

Structure (SMILES) | MIC [2] | MIC [3] | MIC [4] | MIC [5] | MIC [6] | MIC [7] | MIC [8] | CC50 [1]
c1ccc(-c2ccc(C(c3ccccc3)n3ccnc3)cc2)cc1 (centres undefined) [BIFONAZOLE] | 10 µM (≈ 3.1 µg/mL) | > 10 µM | > 10 µM | > 10 µM | > 10 µM | > 10 µM | > 10 µM | > 10 µM
CCN(CC)C(=S)SSC(=S)N(CC)CC | 5 µM (≈ 1.48 µg/mL) | > 10 µM | > 10 µM | > 10 µM | > 10 µM | > 10 µM | 2.5 µM (≈ 0.741 µg/mL) | 5.04 µM
CO[C@H]1/C=C/O[C@@]2(C)Oc3c(C)c(O)c4c(O)c(c(C=NN5CCN(C6CCCC6)CC5)c(O)c4c3C2=O)NC(=O)/C(C)=C\C=C\[C@H](C)[C@H](O)[C@@H](C)[C@@H](O)[C@@H](C)[C@H](OC(C)=O)[C@@H]1C | > 10 µM | ≤ 0.0781 µM | 10 µM (≈ 8.77 µg/mL) | > 10 µM | 10 µM (≈ 8.77 µg/mL) | > 10 µM | > 10 µM | > 10 µM
CN(C)[C@@H]1C(O)=C(C(N)=O)C(=O)[C@@]2(O)C(O)=C3C(=O)c4c(O)cccc4[C@@](C)(O)[C@H]3C[C@@H]12 [TETRACYCLINE] | > 10 µM | > 10 µM | > 10 µM | > 10 µM | > 10 µM | > 10 µM | > 10 µM | > 10 µM
Cc1onc(-c2ccccc2)c1C(=O)NC1C(=O)N2C1SC(C)(C)C2C(=O)O (centres undefined) | > 10 µM | > 10 µM | > 10 µM | > 10 µM | > 10 µM | > 10 µM | > 10 µM | > 10 µM
CN(C)[C@@H]1C(=O)C(C(N)=O)=C(O)[C@@]2(O)C(O)=C3C(=O)c4c(O)cccc4[C@@](C)(O)[C@H]3[C@H](O)[C@@H]12 | > 10 µM | 1.25 µM (≈ 0.576 µg/mL) | 5 µM (≈ 2.3 µg/mL) | > 10 µM | 10 µM (≈ 4.6 µg/mL) | > 10 µM | > 10 µM | > 10 µM
Nc1nc(=O)[nH]cc1F [FLUCYTOSINE] | 0.625 µM (≈ 0.0807 µg/mL) | > 10 µM | > 10 µM | > 10 µM | > 10 µM | > 10 µM | 0.625 µM (≈ 0.0807 µg/mL) | > 10 µM
CCC(C)n1ncn(-c2ccc(N3CCN(c4ccc(OCC5COC(Cn6cncn6)(c6ccc(Cl)cc6Cl)O5)cc4)CC3)cc2)c1=O (centres undefined) [ITRACONAZOLE] | 0.156 µM (≈ 0.11 µg/mL) | > 10 µM | > 10 µM | > 10 µM | > 10 µM | > 10 µM | ≤ 0.0781 µM | > 10 µM
CC(=O)Oc1ccccc1C(=O)Nc1ncc([N+](=O)[O-])s1 [NITAZOXANIDE] | > 10 µM | > 10 µM | > 10 µM | > 10 µM | > 10 µM | > 10 µM | > 10 µM | > 10 µM
O=C1CN(/N=C/c2ccc([N+](=O)[O-])o2)C(=O)N1 [NITROFURANTOIN] | > 10 µM | > 10 µM | > 10 µM | > 10 µM | > 10 µM | > 10 µM | > 10 µM | > 10 µM
O=C(O)C[C@H](O)C[C@H](O)/C=C/c1c(C2CC2)nc2ccccc2c1-c1ccc(F)cc1 [PITAVASTATIN CALCIUM] | 10 µM | > 10 µM | > 10 µM | > 10 µM | > 10 µM | > 10 µM | 2.5 µM | > 10 µM
NC(=O)OCC(COC(N)=O)c1ccccc1 | > 10 µM | > 10 µM | > 10 µM | > 10 µM | > 10 µM | > 10 µM | > 10 µM | > 10 µM
Nc1ncn([C@@H]2O[C@H](CO)[C@@H](O)[C@H]2O)c(=O)n1 [AZACITIDINE] | > 10 µM | > 10 µM | 10 µM (≈ 2.44 µg/mL) | > 10 µM | > 10 µM | > 10 µM | > 10 µM | > 10 µM
N[C@@H](C(=O)N[C@@H]1C(=O)N2C(C(=O)O)=C(Cl)CS[C@H]12)c1ccccc1 [CEFACLOR ANHYDROUS] | > 10 µM | > 10 µM | > 10 µM | > 10 µM | > 10 µM | > 10 µM | > 10 µM | > 10 µM
CCN1CCN(C(=O)N[C@@H](C(=O)N[C@@H]2C(=O)N3[C@@H]2SC(C)(C)[C@@H]3C(=O)O)c2ccccc2)C(=O)C1=O [PIPERACILLIN SODIUM] | > 10 µM | > 10 µM | 10 µM | > 10 µM | > 10 µM | 10 µM | > 10 µM | > 10 µM

Further lines, with some results ahead:

MIC [2] | MIC [3] | MIC [4] | MIC [5] | MIC [6] | MIC [7] | MIC [8] | Structure (SMILES) | CC50 [1]
> 10 µM | > 10 µM | > 10 µM | > 10 µM | > 10 µM | > 10 µM | > 10 µM | CC1(C)SC2C(NC(=O)Cc3ccccc3)C(=O)N2C1C(=O)O (centres undefined) | > 10 µM
> 10 µM | 5 µM (≈ 2.03 µg/mL) | > 10 µM | > 10 µM | > 10 µM | > 10 µM | > 10 µM | Oc1c(Cl)cc(Cl)c(Cl)c1Cc1c(O)c(Cl)cc(Cl)c1Cl [HEXACHLOROPHENE] | > 10 µM
> 10 µM | 1.25 µM | 0.156 µM | 5 µM | 1.25 µM | 10 µM | > 10 µM | CCn1cc(C(=O)O)c(=O)c2cc(F)c(N3CCN(C)CC3)cc21 [PEFLOXACIN MESYLATE] | > 10 µM
> 10 µM | 10 µM | > 10 µM | > 10 µM | > 10 µM | > 10 µM | > 10 µM | COc1cccc2c1C(=O)c1c(O)c3c(c(O)c1C2=O)C[C@@](O)(C(=O)CO)C[C@@H]3O[C@H]1C[C@H](N)[C@H](O)[C@H](C)O1 [DOXORUBICIN HYDROCHLORIDE] | > 10 µM
> 10 µM | 0.625 µM (≈ 0.278 µg/mL) | 1.25 µM (≈ 0.556 µg/mL) | > 10 µM | 0.312 µM (≈ 0.139 µg/mL) | > 10 µM | > 10 µM | CC1c2cccc(O)c2C(=O)C2=C(O)C3(O)C(O)=C(C(N)=O)C(=O)C(N(C)C)C3C(O)C21 (centres undefined) | > 10 µM
> 10 µM | ≤ 0.0781 µM | ≤ 0.0781 µM | 1.25 µM | 0.312 µM | 0.625 µM | > 10 µM | NC1CCN(c2nc3c(cc2F)c(=O)c(C(=O)O)cn3-c2ccc(F)cc2F)C1 (centres undefined) [TOSUFLOXACIN TOSYLATE] | > 10 µM
> 10 µM | > 10 µM | > 10 µM | > 10 µM | > 10 µM | > 10 µM | > 10 µM | CCc1oc2ccccc2c1C(=O)c1cc(Br)c(O)c(Br)c1 [BENZBROMARONE] | > 10 µM
> 10 µM | > 10 µM | > 10 µM | > 10 µM | > 10 µM | > 10 µM | > 10 µM | COc1cc2nc(N3CCN(C(=O)c4ccco4)CC3)nc(N)c2cc1OC | > 10 µM
> 10 µM | 5 µM (≈ 1.24 µg/mL) | > 10 µM | > 10 µM | > 10 µM | > 10 µM | > 10 µM | CCc1nc(N)nc(N)c1-c1ccc(Cl)cc1 [PYRIMETHAMINE] | > 10 µM
> 10 µM | 5 µM (≈ 1.45 µg/mL) | 1.25 µM (≈ 0.363 µg/mL) | 10 µM (≈ 2.9 µg/mL) | > 10 µM | > 10 µM | > 10 µM | COc1cc(Cc2cnc(N)nc2N)cc(OC)c1OC [TRIMETHOPRIM] | > 10 µM
> 10 µM | > 10 µM | > 10 µM | > 10 µM | > 10 µM | > 10 µM | > 10 µM | Cc1noc(NS(=O)(=O)c2ccc(N)cc2)c1C [SULFISOXAZOLE] | > 10 µM
> 10 µM | > 10 µM | > 10 µM | > 10 µM | > 10 µM | > 10 µM | > 10 µM | CCc1c2c(nc3ccc(OC(=O)N4CCC(N5CCCCC5)CC4)cc13)-c1cc3c(c(=O)n1C2)COC(=O)[C@]3(O)CC [IRINOTECAN HYDROCHLORIDE] | 0.341 µM
> 10 µM | > 10 µM | > 10 µM | > 10 µM | 10 µM (≈ 7.48 µg/mL) | > 10 µM | > 10 µM | CC[C@H]1OC(=O)[C@H](C)[C@@H](O[C@H]2C[C@@](C)(OC)[C@@H](O)[C@H](C)O2)[C@H](C)[C@@H](O[C@@H]2O[C@H](C)C[C@H](N(C)C)[C@H]2O)[C@](C)(OC)C[C@@H](C)C(=O)[C@H](C)[C@@H](O)[C@]1(C)O [CLARITHROMYCIN] | > 10 µM

From ChEMBL document CHEMBL4513141, “CO-ADD screening of NIH (USA) - Clinical Collection” (2021)
